Results taken from patent publication US9138494B2, “Radiolabeled PDE10A ligands” (AbbVie Inc., priority 2011, dated 2015).
Each block holds one compound with its values, some of them ahead of it.

Key:
PDE10A = PDE10A (Homo sapiens, UniProt Q9Y233); experiment: PDE enzymatic inhibition assay (HTRF cAMP kit); format: biochemical; conditions: recombinant PDE10, 20 nM substrate, 60 minutes at 29° C.
Method: Recombinant PDE proteins were used in in vitro enzymatic reaction for measurement of PDE activity. […] The enzymatic activity of PDEs was determined by cAMP measurement kit from CisBio (IBA) using HTRF technology. The PDE enzymatic reaction was carried out in assay buffer (20 mM Tris-HCl pH7.5, 10 mM MgCl2, 0.1% bovine serum albumin) containing enzyme and substrate. The PDE enzymes concentration ranged from 10 pM-250 pM, depending on each enzyme's specific activity. […] The inhibitory effect of compound was determined by incubating various concentration of inhibitor in the enzymatic assay. […] Next, the compound at varying concentration was mixed with PDE enzyme. The reaction was initiated by addition of cyclic nucleotide substrate, and incubated for 60 minutes at 29° C. The reaction was stopped by addition of lysis buffer from assay kit. The cAMP-d2 and anti-cAMP cryptate in the lysis buffer detected the level of cAMP left from the PDE hydrolysis reaction. […] Thus, IC50 value of inhibitor can be obtained by plotting inhibitor concentration against PDE activity at that concentration.

[1] = Human hepatocyte half-life; format: in vitro ADME; conditions: for half-life: hepatocytes, human (H), read-out: Hepatocyte T1/2
[2] = log D determined by shake flask method; format: physicochemical; conditions: read-out: SF log D
[3] = Monkey microsome half-life; format: in vitro ADME; conditions: monkey microsomes; read-out: Monkey Microsome T1/2
Rat hepatocyte half-life = format: in vitro ADME; conditions: hepatocytes; rat (R); read-out: Hepatocyte T1/2
[4] = Rat PK (0.05 mg/kg, iv), free brain concentration and free B/P; format: in vivo
P-gp = P-gp (Homo sapiens (Human), UniProt P08183); experiment: MDCK-MDR1 assay, Efflux Ratio (P-gp); format: in vitro ADME; conditions: dog; MDCK-MDR1 cells
rats [5] = conditions: cited from earlier work
rats [6] = conditions: cited from earlier work; remark: listed apart in the source
rats [7] = conditions: cited from earlier work; remark: listed apart in the source

Sequence of PDE10A (Q9Y233 whole entry, looked up): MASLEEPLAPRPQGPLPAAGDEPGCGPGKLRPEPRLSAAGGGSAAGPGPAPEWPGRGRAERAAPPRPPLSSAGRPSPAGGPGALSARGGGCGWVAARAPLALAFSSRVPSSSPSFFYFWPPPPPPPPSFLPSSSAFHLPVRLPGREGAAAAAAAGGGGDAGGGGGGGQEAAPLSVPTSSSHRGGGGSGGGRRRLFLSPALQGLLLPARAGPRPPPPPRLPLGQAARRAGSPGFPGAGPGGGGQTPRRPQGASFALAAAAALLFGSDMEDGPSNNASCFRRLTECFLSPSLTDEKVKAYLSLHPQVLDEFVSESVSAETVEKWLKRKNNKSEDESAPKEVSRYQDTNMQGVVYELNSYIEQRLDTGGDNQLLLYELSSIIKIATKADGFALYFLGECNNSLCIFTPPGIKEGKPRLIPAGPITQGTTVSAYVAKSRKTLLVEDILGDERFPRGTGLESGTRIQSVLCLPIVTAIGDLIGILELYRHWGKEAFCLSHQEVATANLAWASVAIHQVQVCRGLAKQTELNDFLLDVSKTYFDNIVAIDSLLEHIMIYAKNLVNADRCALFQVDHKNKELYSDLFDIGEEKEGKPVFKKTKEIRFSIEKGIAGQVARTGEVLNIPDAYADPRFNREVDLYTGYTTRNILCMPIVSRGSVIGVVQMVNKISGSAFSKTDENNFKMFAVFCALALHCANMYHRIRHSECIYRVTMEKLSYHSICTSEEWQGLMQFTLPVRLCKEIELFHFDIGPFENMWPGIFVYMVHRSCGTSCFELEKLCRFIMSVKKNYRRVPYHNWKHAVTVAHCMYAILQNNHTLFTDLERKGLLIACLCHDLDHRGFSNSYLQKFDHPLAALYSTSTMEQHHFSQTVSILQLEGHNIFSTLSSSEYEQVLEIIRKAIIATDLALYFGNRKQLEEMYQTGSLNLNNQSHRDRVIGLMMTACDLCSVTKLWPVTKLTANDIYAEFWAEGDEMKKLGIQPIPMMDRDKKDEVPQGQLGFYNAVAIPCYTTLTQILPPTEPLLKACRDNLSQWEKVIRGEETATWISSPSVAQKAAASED
Sequence of P-gp (P08183 whole entry): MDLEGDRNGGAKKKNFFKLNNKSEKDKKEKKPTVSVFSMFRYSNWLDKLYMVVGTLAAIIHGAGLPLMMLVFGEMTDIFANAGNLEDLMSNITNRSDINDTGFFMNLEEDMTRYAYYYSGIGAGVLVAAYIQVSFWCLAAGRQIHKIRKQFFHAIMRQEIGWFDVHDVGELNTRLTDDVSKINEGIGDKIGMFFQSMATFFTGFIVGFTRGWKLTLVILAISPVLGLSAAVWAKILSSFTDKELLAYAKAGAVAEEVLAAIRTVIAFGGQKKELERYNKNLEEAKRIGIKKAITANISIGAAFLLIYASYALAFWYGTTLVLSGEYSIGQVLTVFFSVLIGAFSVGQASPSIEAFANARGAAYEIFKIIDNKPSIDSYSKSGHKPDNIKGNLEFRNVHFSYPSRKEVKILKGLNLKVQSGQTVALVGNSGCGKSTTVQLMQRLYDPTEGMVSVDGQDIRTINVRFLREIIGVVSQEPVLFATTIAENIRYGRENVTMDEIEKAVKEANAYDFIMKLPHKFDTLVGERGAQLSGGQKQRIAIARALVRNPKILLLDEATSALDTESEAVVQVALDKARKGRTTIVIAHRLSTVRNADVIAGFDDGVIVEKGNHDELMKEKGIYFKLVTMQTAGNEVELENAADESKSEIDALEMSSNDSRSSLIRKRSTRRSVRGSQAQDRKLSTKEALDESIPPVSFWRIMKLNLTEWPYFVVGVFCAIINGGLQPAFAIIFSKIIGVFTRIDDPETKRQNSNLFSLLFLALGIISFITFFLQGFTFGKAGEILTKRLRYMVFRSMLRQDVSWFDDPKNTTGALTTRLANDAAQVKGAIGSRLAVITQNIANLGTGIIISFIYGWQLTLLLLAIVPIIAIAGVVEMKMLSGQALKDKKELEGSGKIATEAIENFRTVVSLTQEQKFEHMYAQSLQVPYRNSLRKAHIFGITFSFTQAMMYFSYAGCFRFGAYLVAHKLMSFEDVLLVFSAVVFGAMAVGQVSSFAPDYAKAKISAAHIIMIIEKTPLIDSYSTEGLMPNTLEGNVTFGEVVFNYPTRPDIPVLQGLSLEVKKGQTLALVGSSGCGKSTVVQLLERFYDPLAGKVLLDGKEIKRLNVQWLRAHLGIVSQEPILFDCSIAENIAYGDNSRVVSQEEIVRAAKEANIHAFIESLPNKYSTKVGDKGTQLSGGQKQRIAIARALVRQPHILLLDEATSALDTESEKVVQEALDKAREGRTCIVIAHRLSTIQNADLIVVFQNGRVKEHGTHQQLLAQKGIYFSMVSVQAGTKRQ

IC50 (PDE10A): 1.05 nM
SMILES: Cn1cc(-c2ccncc2)c(-c2ccc(OCc3ccc4ncccc4n3)cc2)n1 [Example 1, 2-((4-(1-methyl-4-(pyridin-4-yl)-1H-pyrazol-3-yl)phenoxy)methyl)-1,5-naphthyridine]

half-life [1]: 79 min
IC50 (PDE10A): 0.2 nM
logD [2]: 3.71
half-life [3]: 24 min
half-life (Rat hepatocyte half-life): 12 min
Free B/P (ratio of free brain concentration divided by free plasma concentration) ([4]; 3 min after dose): 0.20
Free [brain] ([4]; 3 min after dose): 0.692 ng/g
Free B/P (ratio of free brain concentration divided by free plasma concentration) ([4]; 5 min after dose): 0.13
Free [brain] ([4]; 5 min after dose): 0.184 ng/g
efflux ratio (P-gp): 1.95
SMILES: FCCn1cc(-c2ccncc2)c(-c2ccc(OCc3ccc4ncccc4n3)cc2)n1 [Example 2, 2-((4-(1-(2-fluoroethyl)-4-(pyridin-4-yl)-1H-pyrazol-3-yl)phenoxy)methyl)-1,5-naphthyridine]
human hepatocyte half-life compared with MP-10, JNJ-41510417 and Janssen B-3 ([1]; human Hepatocyte T1/2): significantly longer human hepatocyte half-lives

IC50 (PDE10A): 4.7 nM
SMILES: FCCn1cc(-c2ccncc2)c(-c2ccc(OCc3nc4ccccc4o3)cc2)n1 [Example 3, 2-((4-(1-(2-fluoroethyl)-4-(pyridin-4-yl)-1H-pyrazol-3-yl)phenoxy)methyl)benzo[d]oxazole]

IC50 (PDE10A): 2 nM
SMILES: Cn1cc(-c2ccncc2)c(-c2ccc(OCc3nc4ccccc4c(=O)n3C)cc2)n1 [Example 4, 3-methyl-2-((4-(1-methyl-4-(pyridin-4-yl)-1H-pyrazol-3-yl)phenoxy)methyl)quinazolin-4(3H)-one]

IC50 (PDE10A): 0.18 nM
SMILES: FCCn1cc(-c2ccncc2)c(-c2ccc(OCc3ncc4ccccc4n3)cc2)n1 [Example 9, 2-((4-(1-(2-fluoroethyl)-4-(pyridin-4-yl)-1H-pyrazol-3-yl)phenoxy)methyl)quinazoline]

SMILES: FCCn1cc(-c2ccncc2)c(-c2ccc(OCc3ccc4ccccc4n3)cc2)n1 [JNJ-41510417, reference compound]
IC50 (PDE10A): 0.63 nM

SMILES: Cc1cnc(COc2ccc(-c3nn(CCF)cc3-c3ccncc3)cc2)c(C)c1 [Janssen B-3, reference compound]
IC50 (PDE10A): 0.98 nM

half-life [1]: 54.9 min
logD [2]: 4.28
half-life [3]: 7 min
half-life (Rat hepatocyte half-life): 13 min
Free [brain] ([4]; 3 min after dose): 0.054 ng/g
Free [brain] ([4]; 5 min after dose): 0.098 ng/g
SMILES: Cn1cc(-c2ccncc2)c(-c2ccc(OCc3ccc4ccccc4n3)cc2)n1 [MP-10, reference compound]

SMILES: COc1ccc(Cc2nccc3cc(OC)c(OC)cc23)cc1OC [Papaverine, papaverine]
reduction of amphetamine-induced hyperactivity (rats [5]): insignificant
catalepsy on its own (rats [6]; alone): did not cause catalepsy on its own
effect on haloperidol-induced catalepsy (rats [6]; with haloperidol): potentiated the cataleptic effect
PCP-induced hyperactivity (rats [7]): reduced hyperactivity
